{
  "source": "patent US8318812B2",
  "about": "“Therapeutic agents for the treatment of lymphoid malignancies” (The Ohio State University Research Foundation, priority 2006, dated 2012)",
  "key": {"AML cell lines": {"tested_on": "AML cell lines", "experiment": "Annexin V/PI apoptosis assay in AML cell lines", "assay_type": "cell-based", "details": "48 hours", "procedure": "Cell cultures were exposed to vehicle control and increasing doses of FTY720 for 48 hours. Cells were then stained with Annexin V (AnnV) and propidium iodide (PI), and analyzed using routine flow cytometry. Percentage of viable cells (AnnV− PI−), cells undergoing apoptosis (AnnV+ PI−), and necrotic cells (AnnV+ PI+) are represented for each cell line studied in FIG. 10A."}, "PP2A": {"tested_on": "PP2A", "experiment": "PP2A activity in lysates of Ramos B cell line", "assay_type": "cell-based, Human", "procedure": "PP2A Activity: The protein phosphatase activity of total cellular lysate was determined by measuring the generation of free PO4 from the threonine phosphopeptide using the malachite green-phosphate complex assay as described by the manufacturer (Upstate, Charlottesville, […].). Cell lysates were prepared in a low detergent lysis buffer (1% Nonidet P-40, 10 mM HEPES, 0.5M NaCl, 10% Glycerol, 1 mM PMSF, 5 mM Benzamidine, 10 μg/ml leupeptin). The phosphatase assay was performed in a PP2A-specific reaction buffer (Upstate) using 750 μM phosphopeptide substrate. After 30-min incubation at 30° C. malachite dye was added, and free phosphate was measured by optical density at 650 nm. To avoid variability among different immunoprecipitated samples, the phosphatase activities were normalized with the amount of PP2A immunoprecipitated, as detected and quantified by western blot analysis of each treatment group.\nIn order to determine if FTY720 induced activation of PP2A enzyme in CD19^+ B cells from CLL patients were treated with 10 uM FTY720 for 0, 1, 2, 3, 4 and 15 hrs and the PP2A activity in the lysates were quantified using a functional assay following immunoprecipitation of PP2A enzyme. As reported previously in other systems, FTY720 induced a consistent 2-3 fold increase in PP2A activation with the peak response observed at 4 hour post treatment (FIG. 6a). […]"}},
  "data": [
    {"smiles": "CCCCCCCCc1ccc(CCC(N)(CO)CO)cc1.Cl", "note": "[FTY720, 2-Amino-2-[2-(4-octylphenyl)ethyl]propane 1,3-diol hydrochloride]", "values": [
      {"measurement": "apoptosis in AML cell lines", "setting": "AML cell lines", "value": "induces apoptosis"},
      {"measurement": "earliest time of FTY720 induced PP2A activation", "setting": "PP2A", "value": 3, "unit": "h"}
    ]}
  ]
}
